In US4052262A (priority 1969, dated 1977):
Where two headings read alike, the source gives them in different places. One block for each molecule: values may come before it.

Target: T1, alkaline protease (crystalline enzyme of the present invention) from Bacillus sp. No. 221 (ATCC 21522), Bacillus sp. No. 0-4 (ATCC 21536) or Bacillus sp. No. Y- (Shouchella clausii, UniProt P41362)
T1 construct: made in house; host or cells: culture of the wild Bacillus strain (No. 221, No. 0-4 or No. Y-76); native enzyme isolated from the culture
T1 sequence (P41362 112-380): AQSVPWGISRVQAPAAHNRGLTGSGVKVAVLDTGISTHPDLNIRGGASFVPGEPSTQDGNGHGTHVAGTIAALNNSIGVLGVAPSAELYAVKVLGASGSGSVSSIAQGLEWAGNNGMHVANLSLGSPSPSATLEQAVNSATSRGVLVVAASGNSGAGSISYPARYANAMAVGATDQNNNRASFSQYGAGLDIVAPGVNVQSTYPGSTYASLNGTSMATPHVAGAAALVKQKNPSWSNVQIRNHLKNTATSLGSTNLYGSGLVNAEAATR
Type: biochemical, No. Y-76
Method: One milliliter of the enzyme solution suitably diluted with 10^-2 M CaCl2 was mixed with 5 ml of 0.6% casein solution (pH 11.5, 2 × 10^-2 M Na2 HPO4 - NaOH buffer) at 30° C. After 10 minutes' incubation, 5 ml of trichloroacetic acid solution (0.11M trichloroacetic acid, 0.22M sodium acetate, and 0.33M acetic acid) was added to the reaction mixture and the mixture was further incubated at 30° C for 30 minutes. The mixture was filtered and the absorbance of the filtrate was measured at 275 mμ. The readings were corrected by substracting the value of the blank in which the enxyme solution was mixed with trichloroacetic acid solution before the casein solution was added.
One unit of protease activity is defined as the amount of enzyme required to produce the digest which is not precipitated by trichloroacetic acid and which gives absorbance value equivalent to 1 γ of tyrosine per minute at 30° C. The relative activity is the activity at any pH divided by the maximum activity and multiplied by 100. FIG. 4 of this application gives the data of the absolute activity (arbitrary scale) on the ordinate and the pH's on the axis of the abscissa.

SMILES: O=C(O)c1cc[c]([Hg][Cl])cc1 [PCMB, p-chloromercuribenzoate]
Residual activity (additive concentration 10^-3 M): 100%

Residual activity (additive concentration 6 M): 0%
SMILES: NC(N)=O [Urea]

SMILES: O=C(O)CN(CCN(CC(=O)O)CC(=O)O)CC(=O)O [EDTA, ethylenediaminetetraacetic acid]
Residual activity: 100%
